# Measurements as given in ChEMBL document CHEMBL1201862, “PubChem BioAssay data set” (2004).
#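 Assay format: 96-well plates, 48-hour exposure. GI50 marks 50% less growth.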 Activity calls are given as the source filed them. Cut-off read from the data, not from the text of the source: active = GI50 up to about 1.1 µM and inactive = higher.
# Key:
# Test in all cases: NCI tumour cell line growth inhibition, 48 h
# SK-MEL-5 = system: SK-MEL-5
# SNB-19 = system: SNB-19
# K562 = system: K562
# DMS-114 = system: DMS-114
# OVCAR-3 = system: OVCAR-3
# SNB-75 = system: SNB-75
# HT-29 = system: HT-29
# HCT-116 = system: HCT-116
# ACHN = system: ACHN
# HOP-92 = system: HOP-92
# KM12 = system: KM12
# A549 = system: A549
# TK-10 = system: TK-10
# OVCAR-5 = system: OVCAR-5
# HOP-18 = system: HOP-18
# KM-20L2 = system: KM-20L2
# SF-295 = system: SF-295
# U-251 = system: U-251
# UACC-62 = system: UACC-62
# DLD-1 = system: DLD-1
# OVCAR-8 = system: OVCAR-8
# UACC-257 = system: UACC-257
# UO-31 = system: UO-31
# IGROV-1 = system: IGROV-1
# COLO 205 = system: COLO 205
# NCI-H226 = system: NCI-H226
# EKVX = system: EKVX
# SF-539 = system: SF-539
# M14 = system: M14
# NCI-H522 = system: NCI-H522
# SK-OV-3 = system: SK-OV-3
# M19-MEL = system: M19-MEL
# SN12C = system: SN12C
# HCT-15 = system: HCT-15
# NCI-H23 = system: NCI-H23
# RXF 393 = system: RXF 393
# Malme-3M = system: Malme-3M
# DMS-273 = system: DMS-273
# SK-MEL-2 = system: SK-MEL-2
# CAKI-1 = system: CAKI-1
# RPMI-8226 = system: RPMI-8226
# OVCAR-4 = system: OVCAR-4
# SNB-78 = system: SNB-78
# MOLT-4 = system: MOLT-4
# 786-0 = system: 786-0
# HCC 2998 = system: HCC 2998
# CCRF-CEM = system: CCRF-CEM
# A498 = system: A498
# LXFL 529 = system: LXFL 529
# SF-268 = system: SF-268
# SK-MEL-28 = system: SK-MEL-28
# LOX IMVI = system: LOX IMVI
# HL-60 = system: HL-60
# SW-620 = system: SW-620
# HOP-62 = system: HOP-62
# SR = system: SR
# XF498 = system: XF498
structure (smiles),measurement,setting,value
O=c1c2ccccc2c(=O)n2n1CC=CC2,GI50,SK-MEL-5,> 100 µM (inactive)
same,GI50,SNB-19,> 100 µM (inactive)
same,GI50,K562,> 100 µM (inactive)
same,GI50,DMS-114,> 100 µM (inactive)
same,GI50,OVCAR-3,> 100 µM (inactive)
same,GI50,SNB-75,> 100 µM (inactive)
same,GI50,HT-29,> 100 µM (inactive)
same,GI50,HCT-116,> 100 µM (inactive)
same,GI50,ACHN,> 100 µM (inactive)
same,GI50,HOP-92,> 100 µM (inactive)
same,GI50,KM12,> 100 µM (inactive)
same,GI50,A549,> 100 µM (inactive)
same,GI50,TK-10,> 100 µM (inactive)
same,GI50,OVCAR-5,> 100 µM (inactive)
same,GI50,HOP-18,> 100 µM (inactive)
same,GI50,KM-20L2,> 100 µM (inactive)
same,GI50,SF-295,> 100 µM (inactive)
same,GI50,U-251,> 100 µM (inactive)
same,GI50,UACC-62,> 100 µM (inactive)
same,GI50,DLD-1,> 100 µM (inactive)
same,GI50,OVCAR-8,> 100 µM (inactive)
same,GI50,UACC-257,> 100 µM (inactive)
same,GI50,UO-31,> 100 µM (inactive)
same,GI50,IGROV-1,> 100 µM (inactive)
same,GI50,COLO 205,> 100 µM (inactive)
same,GI50,NCI-H226,> 100 µM (inactive)
same,GI50,EKVX,> 100 µM (inactive)
same,GI50,SF-539,> 100 µM (inactive)
same,GI50,M14,> 100 µM (inactive)
same,GI50,NCI-H522,> 100 µM (inactive)
same,GI50,SK-OV-3,> 100 µM (inactive)
same,GI50,M19-MEL,> 100 µM (inactive)
same,GI50,SN12C,> 100 µM (inactive)
same,GI50,HCT-15,> 100 µM
same,GI50,NCI-H23,> 100 µM (inactive)
same,GI50,RXF 393,> 100 µM (inactive)
same,GI50,Malme-3M,> 100 µM (inactive)
same,GI50,DMS-273,> 100 µM (inactive)
same,GI50,SK-MEL-2,> 100 µM (inactive)
same,GI50,CAKI-1,> 100 µM (inactive)
same,GI50,RPMI-8226,> 100 µM (inactive)
same,GI50,OVCAR-4,> 100 µM (inactive)
same,GI50,SNB-78,> 100 µM (inactive)
same,GI50,MOLT-4,> 100 µM (inactive)
same,GI50,786-0,> 100 µM (inactive)
same,GI50,HCC 2998,> 100 µM (inactive)
same,GI50,CCRF-CEM,> 100 µM (inactive)
same,GI50,A498,> 100 µM (inactive)
same,GI50,LXFL 529,> 100 µM (inactive)
same,GI50,SF-268,> 100 µM (inactive)
same,GI50,SK-MEL-28,> 100 µM (inactive)
same,GI50,LOX IMVI,> 100 µM (inactive)
same,GI50,HL-60,> 100 µM (inactive)
same,GI50,SW-620,> 100 µM (inactive)
O=C1OC(Cl)C(N=P(c2ccccc2)(c2ccccc2)c2ccccc2)=C1Cl (centres undefined),GI50,SK-MEL-5,> 100 µM (inactive)
same,GI50,SNB-19,> 100 µM (inactive)
same,GI50,K562,> 100 µM (inactive)
same,GI50,DMS-114,> 100 µM (inactive)
same,GI50,OVCAR-3,> 100 µM (inactive)
same,GI50,SNB-75,36.4 µM (inactive)
same,GI50,HT-29,> 100 µM (inactive)
same,GI50,HCT-116,> 100 µM (inactive)
same,GI50,HOP-92,> 100 µM (inactive)
same,GI50,KM12,> 100 µM (inactive)
same,GI50,A549,> 100 µM (inactive)
same,GI50,TK-10,> 100 µM (inactive)
same,GI50,SF-295,> 100 µM (inactive)
same,GI50,UACC-62,> 100 µM (inactive)
same,GI50,HOP-62,> 100 µM (inactive)
same,GI50,DLD-1,> 100 µM (inactive)
same,GI50,OVCAR-8,> 100 µM (inactive)
same,GI50,UACC-257,> 100 µM (inactive)
same,GI50,UO-31,> 100 µM (inactive)
same,GI50,SR,> 100 µM (inactive)
same,GI50,IGROV-1,> 100 µM (inactive)
same,GI50,COLO 205,> 100 µM (inactive)
same,GI50,NCI-H226,> 100 µM (inactive)
same,GI50,EKVX,> 100 µM (inactive)
same,GI50,SF-539,93.3 µM (inactive)
same,GI50,M14,> 100 µM (inactive)
same,GI50,NCI-H522,> 100 µM (inactive)
same,GI50,SK-OV-3,> 100 µM (inactive)
same,GI50,M19-MEL,> 100 µM (inactive)
same,GI50,SN12C,> 100 µM (inactive)
same,GI50,NCI-H23,> 100 µM (inactive)
same,GI50,Malme-3M,> 100 µM (inactive)
same,GI50,DMS-273,> 100 µM (inactive)
same,GI50,SK-MEL-2,> 100 µM (inactive)
same,GI50,CAKI-1,> 100 µM (inactive)
same,GI50,RPMI-8226,> 100 µM (inactive)
same,GI50,OVCAR-4,> 100 µM (inactive)
same,GI50,SNB-78,37.9 µM (inactive)
same,GI50,MOLT-4,> 100 µM (inactive)
same,GI50,786-0,80.4 µM (inactive)
same,GI50,XF498,> 100 µM (inactive)
same,GI50,HCC 2998,> 100 µM (inactive)
same,GI50,CCRF-CEM,> 100 µM (inactive)
same,GI50,A498,> 100 µM (inactive)
same,GI50,LXFL 529,> 100 µM (inactive)
same,GI50,SF-268,> 100 µM (inactive)
same,GI50,SK-MEL-28,> 100 µM (inactive)
same,GI50,LOX IMVI,> 100 µM (inactive)
same,GI50,HL-60,> 100 µM (inactive)
same,GI50,SW-620,> 100 µM (inactive)
